Measured values from patent publication US20220168252A1, “RETINOID DERIVATIVES WITH ANTITUMOR ACTIVITY” (BIOGEM S.C. A R.L., priority 2016, published 2022).

How the values were obtained:
[1] = test system: Human NCI-H460 NSCLC; experiment: Anti-proliferative activity, NCI-H460, 24 h exposure + 48 h recovery, SRB; type: cell-based; settings: 48 h recovery in drug-free medium, SRB (Table 1)
Protocol: Tumor cells were exposed for 24 h to new atypical retinoids (AR) and the anti-proliferative activity assessed upon 48 h recovery in drug-free medium with the SRB assay.

[2] = test system: Human NCI-H460 NSCLC; experiment: Anti-proliferative activity, NCI-H460, 72 h, SRB; type: cell-based; settings: Homo sapiens, NCI-H460
Protocol: (§1) The anti-proliferative activity of the POLA1/HDAC dual inhibitors MIR002 and GEM144 was assessed on various cell lines from solid and hematological cancers.
(§2) Human tumor cells were treated with POLA1/HDAC dual inhibitors and cell survival assessed upon 72 h with the SRB assay. HDAC=Histone Deacetylase. POLA1=DNA Polymerase Alpha 1. RI=Resistance Index.

[3] = test system: Human Adarotene-resistant NCI-H460 (R9A) NSCLC; experiment: Anti-proliferative activity, H460-R9A, 24 h + 48 h recovery, SRB; type: cell-based; settings: 24 h exposure, read-out: IC50 ± SD H460-R9A
Protocol: (§3) Tumor cells were exposed for 24 h to new atypical retinoids (AR) and the anti-proliferative activity assessed upon 48 h recovery in drug-free medium with the SRB assay. RI=Resistance Index (ratio between the IC50 values of resistant and sensitive cells).

[4] = test system: MM487-Luc mesothelioma; experiment: Anti-proliferative activity, MM487-Luc, 24 h + 48 h recovery, SRB; type: cell-based; settings: Homo sapiens, 24 h exposure, read-out: IC50 ± SD MM487-Luc
Protocol: as §3

[5] = test system: U87MG glioblastoma cells; experiment: Anti-proliferative activity, U87MG, 24 h + 48 h recovery, SRB; type: cell-based; settings: Homo sapiens, U-87 MG, 24 h exposure, read-out: IC50 ± SD U87MG
Protocol: as §3

[6] = test system: parent A2780 ovarian cancer cell line; experiment: Anti-proliferative activity, A2780, 24 h + 48 h recovery, SRB; type: cell-based; settings: Homo sapiens, 24 h exposure, read-out: IC50 ± SD A2780
Protocol: as §3

[7] = test system: A2780-Dx multidrug-resistant ovarian cancer cell line; experiment: Anti-proliferative activity, A2780-Dx, 24 h + 48 h recovery, SRB; type: cell-based, Human
Protocol: as §3
As described by Zuco V. et al in Neoplasia, 2005 July; 7(7):667-77, H460-R9A are about 70 fold resistant with respect to parental H460 to Adarotene. […] Ovarian cancer A2780 and its clone derivative A2780DX (Doxorubicin resistant) which overexpress P-glycoprotein (PGP), were used to evaluate the possibility of these new molecules to be absorbed at intestinal level. In fact, the overexpression of PGP, as well known, drastically reduces the possibility, after oral administration, of absorption of several chemotherapeutic agents (i.e. Paclitaxel, doxorubicin etc.). Since the IC50 of the tested compounds in A2780 and A2780DX, have similar values we conclude that they are not PGP substrates and they could be administrated to the patients via oral route.

[8] = test system: Z-138 mantle cell lymphoma; experiment: Anti-proliferative activity, Z-138, 24 h + 48 h recovery, MTT; type: cell-based; settings: Homo sapiens, 24 h exposure
Protocol: (§4) Tumor cells were exposed for 24 h to new atypical retinoids (AR) and the anti-proliferative activity assessed upon 48 h recovery in drug-free medium with the MTT assay.

[9] = test system: NB4 (pro-myelocytic. leukemia); experiment: Anti-proliferative activity, NB4, 24 h + 48 h recovery, MTT; type: cell-based; settings: Homo sapiens, 24 h exposure
Protocol: as §4

[10] = test system: human Pleural Epithelioid Mesothelioma MM473; experiment: Orthotopic mesothelioma model MM473 xenografted on nude mice; type: in vivo; settings: 50 mg/kg OS, bid, qdx5/wx4w
Protocol: (MM473-Luc) were re-suspended at the concentration of 1×10^6 cells/40 μl M199 medium., then orthotopically injected intrapeulically with infusion of […] (with Hamilton syringe).
Tumor growth was followed by biweekly measurements. […] Mice were weighed twice a week. […] Tumor growth was further followed by weekly BLI measurements. TGI was calculated as for the H460 trial.

[11] = test system: ST1926-resistant H460 (H460-R9A) NSCLC; experiment: Anti-proliferative activity, H460-R9A, 72 h, SRB; type: cell-based, human
Protocol: as §1, §2

[12] = test system: parent A2780 ovarian carcinoma; experiment: Anti-proliferative activity, A2780, 72 h, SRB; type: cell-based, human; settings: Homo sapiens, A2780, read-out: A2780 IC50 ± SD
Protocol: as §1, §2

[13] = test system: multidrug-resistant A2780-Dx ovarian carcinoma; experiment: Anti-proliferative activity, A2780-Dx, 72 h, SRB; type: cell-based, human; settings: 72 h
Protocol: as §1, §2

[14] = test system: MM432-Luc mesothelioma; experiment: Anti-proliferative activity, MM432-Luc, 72 h, SRB; type: cell-based; settings: Homo sapiens, read-out: MM432-Luc IC50 ± SD
Protocol: as §1
(§5) HDAC=Histone Deacetylase. POLA1=DNA Polymerase Alpha 1. N.e.=not evaluated.

[15] = test system: MM473-Luc mesothelioma; experiment: Anti-proliferative activity, MM473-Luc, 72 h, SRB; type: cell-based, Human; settings: Homo sapiens, read-out: MM473-Luc IC50 ± SD
Protocol: as §1, §5

[16] = test system: MM487-Luc mesothelioma; experiment: Anti-proliferative activity, MM487-Luc, 72 h, SRB; type: cell-based, Human; settings: Homo sapiens, read-out: MM487-Luc IC50 ± SD
Protocol: as §1, §5

[17] = test system: MDA-MB231 (Breast); experiment: Anti-proliferative activity, MDA-MB231, 72 h, SRB; type: cell-based; settings: Homo sapiens, MDA-MB-231, read-out: MDA-MB231 (Breast) IC50 ± SD
Protocol: as §1, §5

[18] = test system: MDA-MB436 breast carcinoma; experiment: Anti-proliferative activity, MDA-MB436, 72 h, SRB; type: cell-based; settings: Homo sapiens, MDA-MB-436, read-out: DA-MB436 (Breast) IC50 ± SD
Protocol: as §1, §5

[19] = test system: U87MG-Luc glioma; experiment: Anti-proliferative activity, U87MG-Luc, 72 h, SRB; type: cell-based; settings: Homo sapiens, read-out: 87MG-Luc (Glioma) IC50 ± SD
Protocol: as §1, §5

[20] = test system: B16-Luc (Melanoma); experiment: Anti-proliferative activity, B16-Luc, 72 h, SRB; type: cell-based, mouse; settings: Mus musculus, read-out: B16-Luc (Melanoma) IC50 ± SD
Protocol: as §1, §5

[21] = test system: NB4 (leukemia); experiment: Cell survival, NB4, 72 h, MTT; type: cell-based, Human; settings: Homo sapiens, read-out: NB4 (leukemia) IC50 ± SD
Protocol: as §1
(§6) Tumor cells were treated with POLA1/HDAC dual inhibitors and cell survival assessed upon 72 h with the MTT assay. HDAC=Histone Deacetylase. POLA1=DNA Polymerase Alpha 1.

[22] = test system: THP-1 (leukemia); experiment: Cell survival, THP-1, 72 h, MTT; type: cell-based, Human; settings: Homo sapiens, THP-1, read-out: THP-1 (leukemia) IC50 ± SD
Protocol: as §1, §6

[23] = test system: U2932 (lymphoma); experiment: Cell survival, U2932, 72 h, MTT; type: cell-based, Human; settings: Homo sapiens, U2932, read-out: U2932 (lymphoma) IC50 ± SD
Protocol: as §1, §6

[24] = test system: Z138 (lymphoma); experiment: Cell survival, Z138, 72 h, MTT; type: cell-based, Human; settings: Homo sapiens, Z-138, read-out: Z138 (lymphoma) IC50 ± SD
Protocol: as §1, §6

[25] = test system: H460-R9A retinoid resistant cells; experiment: H460-R9A lung cancer subcutaneous xenograft in mice; settings: Cisplatin 4 mg/kg IV q7dx4w, MIR002 50 mg/kg OS bid, qdx5/wx4w
Protocol: CD-1 nude and NOG mice, females, 4-5 weeks-old, were housed under specific-pathogen-free conditions in individually ventilated cages.
Cells were cultured in appropriated media and expanded in a 37° C. incubator with saturated humidity and an atmosphere of 95% air and 5% CO2, and were sub-cultured every 2-3 days. Before the injection in mice, cells were checked with MycoAlert® Mycoplasma Detection Kit (Lonza) to exclude mycoplasma contamination, counted by trypan blue dye exclusion, evaluated for cell viability (>95%).
H-460-R9A lung cancer cells were suspended at a concentration of 25×10^6/ml. 5×10^6 tumor cells were suspended in 0.2 ml of M199, then inoculated subcutaneously on the right flank of each animal.
MIR002 was dissolved to a concentration of 3.3 mg/mL in 10% DMSO, 5% ethanol, 20% Kolliphor® EL and 65% Na2CO3 10 mM pH 11 and administered by gavage; Cisplatin was dissolved to a concentration of 0.8 mg/mL in sterile saline solution and administered intravenously.
Four days after inoculation, tumor masses of H460-R9A were measured in length and width using a Mitutoyo caliper, mice were sorted basing on tumor volume (TV) and treatments were started. Tumor volume was calculated as follows: TV (mm3)=(Length (mm)×Width (mm)2)/2. Tumor growth was followed by biweekly measurements. Tumor Growth Inhibition (TGI) for each group was calculated as follows: TGI (%)=100−(mean TVtreated/mean TVcontrol×100). Mice were weighed twice a week.

IC50 [1]: ≤ 500 nM | IC50 ([2]; 72 h, SRB (Table 8), read-out: NCI-H460 IC50 ± SD): 250 ± 6 nM | IC50 ([2]; chronically exposed 72 h, SRB (Table 2), read-out: IC50 ± SD): < 500 nM | IC50 [3]: 2800 ± 300 nM | IC50 [4]: 4500 ± 300 nM | IC50 [5]: 1100 ± 300 nM | IC50 [6]: 600 ± 10 nM | RI (Resistance Index, ratio between the IC50 values of resistant and sensitive cells) ([7]; A2780-Dx vs A2780, 24 h exposure): 0.7 | IC50 ([7]; Homo sapiens, A2780/DX, 24 h exposure, SRB, read-out: IC50 ± SD A2780-Dx): 410 ± 5 nM | IC50 [8]: 74 ± 20 nM | IC50 [9]: 180 ± 40 nM | BWL Day + 35 [10]: 0% | IC50 ([11]; Homo sapiens, H460-R9A, SRB, read-out: H460-R9A IC50 ± SD): 2800 ± 50 nM | IC50 [12]: 600 ± 10 nM | IC50 ([13]; Homo sapiens, A2780/DX, SRB, read-out: A2780-Dx IC50 ± SD): 410 ± 5 nM | IC50 [14]: 1500 ± 80 nM | IC50 [15]: 1200 ± 60 nM | IC50 [16]: 220 ± 20 nM | IC50 [17]: 1900 ± 200 nM | IC50 [18]: 640 ± 30 nM | IC50 [19]: 1100 ± 300 nM | IC50 [20]: 270 ± 20 nM | BWL Day + 35 ([25]; Adarotene 15 mg/Kg OS q7dx5x4w): 0%
SMILES: O=C(O)/C=C/c1ccc(-c2ccc(OCC(=O)NO)c(C34CC5CC(CC(C5)C3)C4)c2)cc1 [Compound 8, 3-(3′-Adamantan-1-yl-4′-hydroxycarbamoylmethoxybiphenyl-4-yl)-acrylic acid]
TGI Day + 35 [10]: 77% | RI (Resistance Index) ([11]; H460-R9A vs NCI-H460): 11.2 | RI (Resistance Index) ([13]; A2780-Dx vs A2780): 0.7 | IC50 [21]: 180 ± 40 nM | IC50 [22]: 420 ± 20 nM | IC50 [23]: 520 ± 30 nM | IC50 [24]: 38 ± 3 nM | TGI Day + 35 ([25]; combination same doses): 38%
